# Reference: US20250115595A1, “INHIBITORS OF HYPOXIA-INDUCIBLE FACTORS” (The Johns Hopkins University, priority 2021, published 2025)
# Legend:
# [1] = tested on: Hepa1-6 HCC tumors; assay: Hepa1-6 tumor growth in syngeneic C57L mice; type: in vivo, mouse; conditions: 32-134D 40 mg/kg/d intraperitoneal
# Procedure: To test whether 32-134D inhibits HCC growth in an immunocompetent mouse model, Hepa1-6 HCC cells were injected into the flank of syngeneic C57L mice (Darlington G J et al., J Natl Cancer Inst. 1980; 64(4):809-819). When tumors became palpable (treatment day 1), mice received daily intraperitoneal injections of 32-134D (40 mg/kg/d) versus vehicle control, or anti-Pd1 antibody versus IgG2a isotype control ([…] on days 1, 4, 7, 10, and 16), or both 32-134D and anti-Pd1. Tumors grew very rapidly in all mice treated with vehicle or IgG2a, necessitating euthanasia on or before day 24 (FIG. 9). Tumors regressed in 5 out of 12 mice treated with anti-Pd1, but two tumors recurred after the last antibody treatment (on day 16) for a tumor eradication rate of only 25%. […] Thus, addition of 32-134D increased the percentage of mice with a durable complete response to anti-Pd1 immune checkpoint blockade from 25% to 67%.
# Protocols were approved by the Johns Hopkins University Animal Care and Use Committee and used in accordance with the NIH Guide for the Care and Use of Laboratory Animals (National Research Council, 2011). Female nude mice (NCI Athymic NCr-nu/nu) and male C57L/J mice were purchased from Charles River and The Jackson Laboratory, respectively. Hep3B (8×106) and Hepa1-6 (1×107) cells were implanted subcutaneously in 6- to 8-week-old mice, and tumor volume was calculated: V=abc×0.52. […]
# [2] = tested on: tumor immune microenvironment; assay: Flow cytometry of immune cell populations in Hepa1-6 tumors; type: in vivo, mouse; conditions: 200-mm3 tumors, within 8 days
# Procedure: To analyze the mechanism by which 32-134D increased the response to anti-Pd1 therapy, tumor-bearing mice were treated with 32-134D or vehicle, and immune cell populations in well-established 200-mm^3 tumors were analyzed by flow cytometry.
# Hepa1-6 tumors were digested with collagenase (1 mg/ml) at 37° C. for 30 minutes and the resulting single cell suspension was passed through a 70-μm cell strainer and washed twice with cold PBS. Cells were resuspended in FC buffer for subsequent flow cytometry analysis. […]
# [3] = tested on: HIF-1α and HIF-2α; assay: HIF accumulation in hypoxic HUVECs; type: cell-based, human; conditions: 10 μM, 4 hours
# Excerpt: Vascular endothelial cells also secrete angiogenic mediators that contribute to the progression of diabetic eye disease (Y. Qin et al., Sci Adv 8, eabm1896 (2022)). Exposure of human umbilical vein endothelial cells (HUVECs) to hypoxia induced HIF-1α and HIF-2α protein accumulation, which was inhibited by 32-134D (FIG. 30). […] Of note, ANGPT2 and VE-PTP, two emerging targets for the treatment of diabetic eye disease, are both expressed specifically by vascular cells (G. Fachinger, et al., Oncogene 18, 5948-5953 (1999); P. C. Maisonpierre et al., Science 277, 55-60 (1997)).
# Cells culture and reagents: MIO-M1 cells were a gift from Dr. Astrid Limb (University College London, Institute of Ophthalmology, London, United Kingdom). MIO-M1 and HUVEC cells were cultured in DMEM with 10% (vol/vol) FBS (Quality Biological) and 1% penicillin/streptomycin (Cellgro). Hypoxia chambers were used to expose cells. Evans Blue (E2129) was purchased from Sigma-Aldrich.
# Immunoblot assays and ELISAs: Cell, neurosensory retina, and D120 retinal organoid lysates were subjected to 4-15% gradient SDS/PAGE (Invitrogen). Immunoblot assays were performed as previously described (X. Xin et al., 2013, Proc Natl Acad Sci USA 110, E3425-3434).
# [4] = tested on: C57BL/6 mice; assay: Laser CNV model, intravitreal dosing; type: in vivo, mouse; conditions: single IVT injection 70 ng on day 3, day 7
# Procedure: To evaluate the efficacy of 32-134D following intraocular administration, the laser CNV model for neovascular (wet) age-related macular degeneration was used (FIG. 25A). C57BL/6 mice were treated with laser on day 0. On day 3, mice were treated with a single IVT injection with 32-134D (1 μl of 14 or 70 ng/μl solution) or with vehicle control. On day 7, mice were euthanized and choroidal flat mounts were stained with isolectin B4 to examine the area of CNV.
# Intraocular injections: Intravitreal injections were performed with a PLI-100A Pico-liter Microinjector (Warner Instruments, Harvard Bioscience) using pulled-glass micropipettes. Each micropipette was calibrated to deliver a 1 μl volume on depression of a foot switch. The mice were anesthetized with a ketamine (100 mg/kg) and xylazine (5 mg/kg) mixture, and under a dissecting microscope, the sharpened tip of the micropipette was passed through the sclera just posterior to the limbus into the vitreous cavity and the foot switch was depressed, which caused fluid to penetrate into the vitreous space. Test compound was injected into the vitreous cavity in OIR and STZ mice for vascular permeability test, retinal vasculature and lysates for WB and qPCR analysis.
smiles,measurement,setting,value
"Brc1ccc2c(-c3csc(-c4c[nH]c5c(Br)cccc45)n3)c[nH]c2c1 [Compound 32-134D, 4-(6-bromo-1H-indol-3-yl)-2-(7-bromo-1H-indol-3-yl)thiazole]",mice with tumor eradication,[1],4 of 12
same,tumor growth,[1],marked inhibition of tumor growth in all mice
same,percentage of Cd8+Ifng+ activated CTLs and Nk1.1+Cd3−Cd314+ activated NK cells,[2],significantly increased
same,percentage of Cd11b+F4/80+ tumor-associated macrophages and Cd11b+Ly6g+Ly6c− myeloid-derived suppressor cells,[2],decrease
same,hypoxia-induced HIF-1α and HIF-2α protein accumulation,[3],inhibited
same,CNV area,[4],significant decrease
